Experimental data as given in patent US7745493B2, “Methods of treating tardive dyskinesia and other movement disorders” (priority 1998, dated 2010).

Tests used:
[1] = system: person two with long-standing TD; experiment: CPT with conditions (Vigilance) (Case 1); type: in vivo, human; details: ON drug
Text: (§1) The following tables report on the results of the neuropsychological tests (Drug I is memantine and Drug II is acamprosate): […]

[2] = system: person one with long-standing TD; experiment: Case Report 2: two-sentence memory task; type: in vivo, human; details: Case 2; on acamprosate 666 mg three times daily plus memantine
Method: The patient was placed on a treatment regime that included administration of 666 mg of acamprosate, three times daily. In this case, acamprosate was added to the patient's regimen, which continued to include memantine. […] Despite past evidence from formal testing that the patient had impaired short-term memory, they performed normally on a two-sentence memory task, which involved testing the patient's recall ability using two sentences containing 13 separate details. On the two-sentence memory task, within three attempts the patient was able to recall 9 details and, using a multiple choice format, was able to recall a total of 11 details. Recall of 9 details on the third attempt would be normal for a middle-aged adult, let alone one […].

[3] = in vivo; cited from earlier work
3,338 patients = details: alcoholism treatment; cited from earlier work
[4] = system: person two with chronic schizophrenia and severe tardive dyskinesia; experiment: Case Report 6: clinical observation of severe TD with blepharospasm in chronic schizophrenia; type: in vivo; details: Case 6
Text: A corresponding physician the United Kingdom recently reported to me on the treatment of a person with chronic schizophrenia and severe tardive dyskinesia. As in Case 1, the patient's involuntary movements included severe blepharospasm. In addition, they had involuntary rhythmic peri-oral movements, and chorea-like movements of both hands, like the patient in Case 2. They had no cognitive complaints, nor were cognitive abnormalities noted on routine psychiatric examination.
The patient had developed symptoms of paranoid schizophrenia in 1991. The symptoms of psychosis included auditory hallucinations, bizarre delusions, and persecutory fears. […] They were subsequently hospitalized and stabilized on fluphenthixol decanoate, a depot neuroleptic given by intramuscular injections. Symptoms of TD developed in November, 1994, after 28 months of neuroleptic therapy. […] Beginning in October 1997 the patient was treated for their schizophrenia with 2 mg of risperidone alone. On this modest dose of an atypical neuroleptic, they had severe symptoms of TD for which they eagerly sought treatment.
Memantine was started on November 28, 1997 at a dose of 5 mg per day, increased after 7 days to 5 mg twice a day, and after another 7 days to 5 mg three times a day. […] Further dosage increases were attempted to completely abolish the involuntary movements. The maximum dose attainable without side effects was 10 mg twice a day; above that level the patient had complaints of dizziness. That dose of memantine was maintained through May of […].
In May 1998 the patient was started on acamprosate, in pursuit of complete elimination of their involuntary movements. Initially, acamprosate 333 mg three times a day was added to memantine 10 mg twice a day.

[5] = system: person with extremely severe tardive dyskinesia and dystonia; experiment: Case Report 4: patient self-report of TD treatment effects (weekly log); type: in vivo, human; details: for Memory: Memory and concentration / Well-being: General well being: 10 is best; for Side effects: 10 is none; for Balance: Difficulty maintaining balance / Face/tongue: Severity of face and tongue movements / Sweating / Trunk: Severity of trunk movements: 10 is worst
Text: A person had extremely severe tardive dyskinesia and dystonia, as a result of over 15 years of treatment of bipolar disorder with lithium and an assortment of neuroleptics. Their involuntary movements consisted of forced extension of the trunk, torsion of the lower legs, plantar flexion of the left foot, chorea of both arms, writhing of the tongue and grimacing. In addition, they had profuse sweating associated with the involuntary movements. To sit still in a chair, they had to forcefully grip both arms. In the chair, forced extension of the trunk practically lifted them out of the chair. Their trunk and leg movements led to impaired balance, with a staggering gait and frequent near-falls. The continual severe movements were associated with impairment in concentration, which made their work less efficient. By virtue of talent and intelligence, however, they were able to work competitively as a software engineer. Because their bipolar disorder remained an active problem, continued neurolepric treatment was necessary to maintain their mental health. They were maintained on lithium carbonate 300 mg three times a day, and risperidone 4 mg per day.
Their movement disorder had been treated with benzodiazepines, anticholinergics, and dopamine agonists, all without meaningful benefit. They were then treated with acamprosate, first at a dosage of 333 mg three times a day, and then at a dosage of 666 mg three times a day. Acamprosate therapy was then augmented with magnesium sulfate, 300 mg three times a day.
The patient maintained a weekly log of symptoms, which is reproduced here as Table 4. […] For several of their symptoms—trunk movement, balance, and sweating 666 mg of acamprosate three times a day of acamprosate was more efficacious than 333 mg three • 2) The addition of magnesium was associated with further improvement in several symptoms, i.e., movements of the face and tongue, neck and limbs; • 3) Benefits of acamprosate increased with continued therapy; • 4) Mental function, as indicated by subjective memory, improved along with the involuntary movements; • 5) The addition of memantine aggravated the involuntary movements.

[6] = system: person two with long-standing TD; experiment: Trail Making Test, Trails B (Case 1); type: in vivo, human; details: ON drug; for Trails B Seconds: lower score better
Text: (§2) The tests showing such results included Simple Reaction Time, the Trail Making Test (both parts) and the Paced Auditory Serial Addition Test (PASAT). Choice reaction time, a test requiring both basic attention and concentration on a specific task that must be kept in mind, was slightly better on acamprosate, consistent with the hypothesis that general cognitive function, as opposed to simple attention, improves with acamprosate treatment.
as §1

[7] = system: person two with long-standing TD; experiment: Trail Making Test, Trails A (Case 1); type: in vivo, human; details: lower score better
Text: as §2, §1

[8] = system: person two with long-standing TD; experiment: Digit Symbol (Case 1); type: in vivo, human; details: ON drug, higher score better
Text: as §1

[9] = system: person two with long-standing TD; experiment: California Verbal Learning Test 16-items (Case 1); type: in vivo, human; details: ON drug
Text: as §1

[10] = week 1, regimen 1: 333 mg three times a day
[11] = week 2, regimen 2: 666 mg three times a day

Compound: CC(=O)NCCCS(=O)(=O)O [acamprosate, calcium N-acetylhomotaurinate]
- CPT Correct ([1]; higher score better): 100/100
- CPT Commission errors ([1]; lower score better): 0
- CPT Omission errors ([1]; lower score better): 0
- CPT Wrong ([1]; lower score better): 3
- details recalled within three attempts (of 13 details) [2]: 9
- total details recalled using multiple choice format (of 13 details) [2]: 11
- absorption from the GI tract [3]: irregularly absorbed
- side effects in controlled trials (3,338 patients): no severe medical or neurological side effects
- peri-oral movements ([4]; 333 mg three times a day added to memantine 10 mg twice a day): peri-oral movements were eliminated
- involuntary movements on acamprosate alone ([4]; after memantine discontinued): continued free of involuntary movements
- Limbs [5, 10]: 6
- Neck [5, 10]: 7
- Memory: Memory and concentration [5, 10]: 9
- Well-being: General well being [5, 10]: 8
- Side effects [5, 10]: 7
- Balance: Difficulty maintaining balance [5, 10]: 7
- Face/tongue: Severity of face and tongue movements [5, 10]: 5
- Sweating [5, 10]: 8
- Trunk: Severity of trunk movements [5, 10]: 8
- Limbs [5, 11]: 7
- Neck [5, 11]: 7
- Memory: Memory and concentration [5, 11]: 9
- Well-being: General well being [5, 11]: 8
- Side effects [5, 11]: 7
- Balance: Difficulty maintaining balance [5, 11]: 5
- Face/tongue: Severity of face and tongue movements [5, 11]: 7
- Sweating [5, 11]: 5
- Trunk: Severity of trunk movements [5, 11]: 6
- Trails B Errors [6]: 0
- Trails B Seconds [6]: 43″
- Trails A Errors ([7]; ON drug): 0
- Trails A Seconds ([7]; ON drug): 20″

Compound: CC12CC3CC(C)(C1)CC(N)(C3)C2 [memantine]
- Digit Symbol [8]: 34
- maximum dose attainable without side effects [4]: 10 mg twice a day
- involuntary movements ([4]; 5 mg three times a day): virtually no involuntary movements noted at the peak of a given dose
- blepharospasm after first two weeks ([4]; 5 mg twice a day): marked improvement in blepharospasm
- involuntary movements after 6 months of treatment ([4]; 10 mg twice a day): no blepharospasm or limb chorea, and only mild peri-oral movements
- complaints above maximum tolerated dose ([4]; above 10 mg twice a day): dizziness
- Trails B Errors [6]: 0
- Trails B Seconds [6]: 118″
- CVLT List A 1-5 total (80 max) ([9]; higher score better): 53
- CVLT List A Trial 1 ([9]; higher score better): 7
- CVLT List A Trial 5 ([9]; higher score better): 13
- CVLT List B ([9]; higher score better): 7
- CVLT Long-Delay Cued Recall ([9]; higher score better): 15
- CVLT Long-Delay Free Recall ([9]; higher score better): 12
- CVLT Recognition Hits ([9]; higher score better): 16
- CVLT Short-Delay Cued Recall ([9]; higher score better): 13
- CVLT Short-Delay Free Recall ([9]; higher score better): 10
- CVLT False Positives ([9]; lower score better): 3
- CVLT Intrusions ([9]; lower score better): 6
- CVLT Perseverations ([9]; lower score better): 23
- Trails A Errors [7]: 0
- Trails A Seconds [7]: 28″
